Literature values as cited in patent US7803402B2, “Pharmaceutical preparations” (priority 2002, dated 2010).

Key:
[1] = in vivo
[2] = cefixime in the circulation

- solubility in dehydrated alcohol (dehydrated alcohol): sparingly soluble
- solubility in ethyl acetate (ethyl acetate): practically insoluble
- solubility in methyl alcohol (methyl alcohol): freely soluble
- solubility in water (water): slightly soluble
- eliminated by nonrenal mechanisms [1]: Up to 60%
- placental transfer [1]: crosses the placenta
- removal by dialysis [1]: not substantially removed
- bound to plasma proteins [2]: About 65%
Structure (SMILES): C=CC1=C(C(=O)O)N2C(=O)[C@@H](NC(=O)/C(=N\OCC(=O)O)c3csc(N)n3)[C@H]2SC1 [Cefixime]
